Legend:
[1] = system: patients with negative symptoms of schizophrenia; experiment: Study #2 (MIN-101C07): Personal and Social Performance (PSP); type: in vivo, human; design: key to PSP total score, LS mean difference vs placebo in change from Baseline / Mean change in PSP Total score from Active Baseline / Change from Baseline LS Mean: PSP Total Score (ITT) / Change from Baseline LS Mean: PSP Total Score (mITT): PSP Total score points (1–100 scale, higher = better functioning); conditions: for Change from Baseline LS Mean: PSP Total Score (ITT) / Change from Baseline LS Mean: PSP domain Disturbing and Aggressive Behaviors / Change from Baseline LS Mean: PSP domain Personal and Social Relationships / Change from Baseline LS Mean: PSP domain Self-Care / Change from Baseline LS Mean: PSP domain Socially Useful Activities / Effect Size (Cohen's d) vs Placebo: PSP Total Score (ITT) / Effect Size (Cohen's d) vs Placebo: PSP domain Disturbing and Aggressive Behaviors / Effect Size (Cohen's d) vs Placebo: PSP domain Personal and Social Relationships / Effect Size (Cohen's d) vs Placebo: PSP domain Self-Care / Effect Size (Cohen's d) vs Placebo: PSP domain Socially Useful Activities: ITT; for Mean change in PSP Total score from Active Baseline: Week 52, OL
From the text: The PSP is a validated clinician-rated scale intended to reflect real-life situations that measures personal and social functioning in 4 domains: (a) socially useful activities, (b) personal and social relationships, (c) self-care, and (d) disturbing and aggressive behaviors. The score is based on the assessment of a patient's performance in the 4 domains. The PSP Total score is a single measurement of functioning ranging from 1 to 100, where a higher score represents better functioning. A score of 91 to 100 indicates excellent functioning in all 4 main areas; the patient is held in high consideration for their good qualities, copes adequately with life problems, and is involved in a wide range of interests and activities. A score of 1 to 10 indicates a lack of autonomy in basic functioning with extreme behaviors but without survival risk (score 6 to 10) or with survival risk (score 1 to 5). […] Review of the relevant scientific literature and the analysis of the psychometric properties of the 4 domains that result in the generation of the PSP Total score were supportive of the appropriateness and cross-cultural applicability of the use of the PSP in drug development for the indication of negative symptoms of schizophrenia The PSP was assessed at the timepoints described in Table 6. The changes from Baseline in the PSP Total score and individual domain scores after 12 weeks of treatment were exploratory efficacy endpoints in Study MIN-101C03, and the Total score was the key secondary efficacy endpoint and the PSP domain scores were exploratory endpoints in Study MIN-101C07.
(§1) Study #2 (also referred to as “MIN101C07”) was a Phase 3, randomized, DB, placebo-controlled, parallel-group 12-week study to evaluate the efficacy and safety of Roluperidone in patients ≥18 years to ≤55 years with negative symptoms of schizophrenia, followed by a 40-week OL extension. The study consisted of a pretreatment screening period of up to 28 days (including an antipsychotic medication washout period), a 12-week, DB, placebo-controlled period, and a 40-week OL period. Eligible patients (with moderate to severe negative symptoms of schizophrenia and stable positive symptoms but without severe symptoms of suspiciousness, agitation, hostility, uncooperativeness, or poor impulse control) were randomized 1:1:1 to receive Roluperidone 32 mg QD, Roluperidone 64 mg QD (GR01/B formulation, see U.S. Pat. No. 11,464,744), or placebo, orally, for 12 weeks. […] During the 40-week OL treatment extension, patients who were initially randomized to Roluperidone 32 mg or 64 mg continued treatment with the same dose, while patients who were initially randomized to placebo crossed over to Roluperidone 32 mg or 64 mg in a 1:1 ratio.

[2] = system: patients with negative symptoms of schizophrenia; experiment: Study #2 (MIN-101C07): Total Verbal Fluency; type: in vivo, human; conditions: Week 12 DB, ITT
From the text: as §1

cholinergic receptors = conditions: background statement; cited from earlier work
[3] = system: patients with negative symptoms of schizophrenia; experiment: Study #2 (MIN-101C07): Calgary Depression Scale for Schizophrenia; type: in vivo, human; conditions: Week 12 DB, ITT
From the text: as §1

[4] = system: patients with negative symptoms of schizophrenia; experiment: Study #2 (MIN-101C07): rate of relapse and time to relapse; type: in vivo, human; conditions: for Patients who experienced relapse (%) / Patients who experienced relapse (number) / Days to relapse (Kaplan-Meier estimates), Mean / Days to relapse (Kaplan-Meier estimates), Median: ITT, MIN-101C07
Description: “Time to relapse” in the DB period is defined as the number of days from Day 1 to the date of early trial termination due to relapse. […] Treatment differences in time to relapse in the DB period were analyzed using a Cox-regression model with treatment group and Baseline PANSS total score as covariates. For the analysis of the OL period, this analysis was repeated to analyze treatment differences in time to relapse in the study. For the OL period analysis, patients who were not observed to relapse in the study were censored on the date on which they ended the study. Kaplan-Meier plots of time to relapse in the DB period, OL period, and in the study were generated.
In some embodiments, for any of the methods disclosed herein, a relapse refers to a patient who is terminated early during treatment (or a study trial) due to worsening of psychosis or an adverse event or generalized symptom in Table 1.
as §1

[5] = Placebo in DB to 32 mg in OL (N = 59), OL period
[6] = Roluperidone Total 32+64 mg (N = 341), DB period
[7] = Roluperidone Total 32+64 mg, DB period
[8] = Roluperidone throughout, Total (N = 211), OL period

Substance: 1H-Isoindol-1-one,2-[ [1-[2-(4-fluorophenyl)-2-oxoethyl]-4-piperidinyl]methyl]-2,3-dihydro-, hydrochloride, hydrate (1:1:2) [Roluperidone]
- Effect Size (Cohen's w) vs Placebo: 7-Point improvement in PSP Total Score responders ([1]; 32 mg QD, Week 12 DB): 0.03
- Effect Size (Cohen's w) vs Placebo: 10-Point improvement in PSP Total Score responders ([1]; 32 mg QD, Week 12 DB): 0.01
- Number of Patients with 7-Point improvement in PSP Total Score at Week 12 ([1]; 32 mg QD, Week 12 DB): 37/116
- Number of Patients with 10-Point improvement in PSP Total Score at Week 12 ([1]; 32 mg QD, Week 12 DB): 26/116
- Patients with 7-Point improvement in PSP Total Score at Week 12 (%) ([1]; 32 mg QD, Week 12 DB): (32%)
- Patients with 10-Point improvement in PSP Total Score at Week 12 (%) ([1]; 32 mg QD, Week 12 DB): (22%)
- Change from Baseline LS Mean: PSP Total Score (ITT) ([1]; 32 mg QD, Week 12 DB): 4.5
- Change from Baseline LS Mean: PSP domain Disturbing and Aggressive Behaviors ([1]; 32 mg QD, Week 12 DB): 0.0
- Change from Baseline LS Mean: PSP domain Personal and Social Relationships ([1]; 32 mg QD, Week 12 DB): −0.4
- Change from Baseline LS Mean: PSP domain Self-Care ([1]; 32 mg QD, Week 12 DB): −0.4
- Change from Baseline LS Mean: PSP domain Socially Useful Activities ([1]; 32 mg QD, Week 12 DB): −0.3
- Effect Size (Cohen's d) vs Placebo: PSP Total Score (ITT) ([1]; 32 mg QD, Week 12 DB): 0.07
- Effect Size (Cohen's d) vs Placebo: PSP domain Disturbing and Aggressive Behaviors ([1]; 32 mg QD, Week 12 DB): 0.00
- Effect Size (Cohen's d) vs Placebo: PSP domain Personal and Social Relationships ([1]; 32 mg QD, Week 12 DB): 0.15
- Effect Size (Cohen's d) vs Placebo: PSP domain Self-Care ([1]; 32 mg QD, Week 12 DB): 0.15
- Effect Size (Cohen's d) vs Placebo: PSP domain Socially Useful Activities ([1]; 32 mg QD, Week 12 DB): 0.02
- Change from Baseline LS Mean: PSP Total Score (mITT) ([1]; 32 mg QD, Week 12 DB): 4.4
- Effect Size (Cohen's d) vs Placebo: PSP Total Score (mITT) ([1]; 32 mg QD, Week 12 DB): 0.07
- Effect Size (Cohen's w) vs Placebo: 7-Point improvement in PSP Total Score responders ([1]; 64 mg QD, Week 12 DB): 0.13
- Effect Size (Cohen's w) vs Placebo: 10-Point improvement in PSP Total Score responders ([1]; 64 mg QD, Week 12 DB): 0.10
- Number of Patients with 7-Point improvement in PSP Total Score at Week 12 ([1]; 64 mg QD, Week 12 DB): 50/122
- Number of Patients with 10-Point improvement in PSP Total Score at Week 12 ([1]; 64 mg QD, Week 12 DB): 37/122
- Change from Baseline LS Mean: PSP Total Score (ITT) ([1]; 64 mg QD, Week 12 DB): 6.1
- Change from Baseline LS Mean: PSP domain Disturbing and Aggressive Behaviors ([1]; 64 mg QD, Week 12 DB): 0.0
- Change from Baseline LS Mean: PSP domain Personal and Social Relationships ([1]; 64 mg QD, Week 12 DB): −0.3
- Change from Baseline LS Mean: PSP domain Self-Care ([1]; 64 mg QD, Week 12 DB): −0.3
- Change from Baseline LS Mean: PSP domain Socially Useful Activities ([1]; 64 mg QD, Week 12 DB): −0.4
- Effect Size (Cohen's d) vs Placebo: PSP Total Score (ITT) ([1]; 64 mg QD, Week 12 DB): 0.27
- Effect Size (Cohen's d) vs Placebo: PSP domain Disturbing and Aggressive Behaviors ([1]; 64 mg QD, Week 12 DB): −0.07
- Effect Size (Cohen's d) vs Placebo: PSP domain Personal and Social Relationships ([1]; 64 mg QD, Week 12 DB): 0.00
- Effect Size (Cohen's d) vs Placebo: PSP domain Self-Care ([1]; 64 mg QD, Week 12 DB): 0.04
- Effect Size (Cohen's d) vs Placebo: PSP domain Socially Useful Activities ([1]; 64 mg QD, Week 12 DB): 0.18
- Change from Baseline LS Mean: PSP Total Score (mITT) ([1]; 64 mg QD, Week 12 DB): 6.2
- Effect Size (Cohen's d) vs Placebo: PSP Total Score (mITT) ([1]; 64 mg QD, Week 12 DB): 0.29
- PSP total score, LS mean difference vs placebo in change from Baseline ([1]; 64 mg, Week 12, ITT): 2.2
- PSP Total score, course in OL period ([1]; OL period): continued improvement was seen
- Mean change in PSP Total score from Active Baseline ([1]; placebo to 32 mg group): 11.7
- Mean change in PSP Total score from Active Baseline ([1]; placebo to 64 mg group): 11.8
- Change from Baseline LS Mean: Total Verbal Fluency (sum of 3 trials) ([2]; 32 mg QD): 3.9
- Effect Size (Cohen's d) vs Placebo: Total Verbal Fluency ([2]; 32 mg QD): 0.21
- Change from Baseline LS Mean: Total Verbal Fluency (sum of 3 trials) ([2]; 64 mg QD): 1.7
- Effect Size (Cohen's d) vs Placebo: Total Verbal Fluency ([2]; 64 mg QD): −0.10
- Affinity (cholinergic receptors): very low or no affinity
- Change from Baseline LS Mean: Calgary Depression Scale for Schizophrenia ([3]; 32 mg QD): −0.2
- Effect Size (Cohen's d) vs Placebo: Calgary Depression Scale for Schizophrenia ([3]; 32 mg QD): 0.21
- Change from Baseline LS Mean: Calgary Depression Scale for Schizophrenia ([3]; 64 mg QD): −0.1
- Effect Size (Cohen's d) vs Placebo: Calgary Depression Scale for Schizophrenia ([3]; 64 mg QD): 0.14
- Patients who experienced relapse (%) ([4]; 32 mg (N = 170), DB period): 11%
- Patients who experienced relapse (number) ([4]; 32 mg (N = 170), DB period): 18
- Patients who experienced relapse (number) ([4]; 32 mg throughout the study (N = 107), OL period): 9
- Days to relapse (Kaplan-Meier estimates), Mean ([4]; 32 mg throughout the study, OL period): 232.4 days
- Days to relapse (Kaplan-Meier estimates), Mean ([4]; 32 mg, DB period): 124.9 days
- Days to relapse (Kaplan-Meier estimates), Median ([4]; 32 mg, DB period): 137.0 days
- Patients who experienced relapse (%) ([4]; 64 mg (N = 171), DB period): 5%
- Patients who experienced relapse (number) ([4]; 64 mg (N = 171), DB period): 9
- Patients who experienced relapse (number) ([4]; 64 mg throughout the study (N = 104), OL period): 10
- Days to relapse (Kaplan-Meier estimates), Mean ([4]; 64 mg throughout the study, OL period): 186.7 days
- Days to relapse (Kaplan-Meier estimates), Mean ([4]; 64 mg, DB period): 82.1 days
- Patients who experienced relapse (%) ([4]; Overall (N = 333), OL period): (8%)
- Patients who experienced relapse (number) ([4]; Overall (N = 333), OL period): 25
- Days to relapse (Kaplan-Meier estimates), Mean ([4]; Overall, OL period): 254.1 days
- Patients who experienced relapse (%) [4, 5]: (10%)
- Patients who experienced relapse (number) [4, 5]: 6
- Days to relapse (Kaplan-Meier estimates), Mean ([4]; Placebo in DB to 32 mg in OL, OL period): 253.6 days
- Patients who experienced relapse (number) ([4]; Placebo in DB to 64 mg in OL (N = 63), OL period): 0
- Patients who experienced relapse (number) ([4]; Placebo in DB to Roluperidone in OL, Total (N = 122), OL period): 6
- Days to relapse (Kaplan-Meier estimates), Mean ([4]; Placebo in DB to Roluperidone in OL, Total, OL period): 260.4 days
- Patients who experienced relapse (%) [4, 6]: 8%
- Patients who experienced relapse (number) [4, 6]: 27
- Days to relapse (Kaplan-Meier estimates), Mean [4, 7]: 127.8 days
- Days to relapse (Kaplan-Meier estimates), Median [4, 7]: 137.0 days
- Patients who experienced relapse (%) [4, 8]: (9%)
- Patients who experienced relapse (number) [4, 8]: 19
- Days to relapse (Kaplan-Meier estimates), Mean ([4]; Roluperidone throughout, Total, OL period): 230.9 days
- Relapse by study phase ([4]; Study #2 (n = 513), all subjects, Double-blind (12-weeks)): 6.8%
- Relapse overall (discontinued because of positive symptoms worsening) ([4]; Study #2 (n = 513), Overall (over 52 weeks)): 11.7%
- Relapse by study phase ([4]; Study #2, Open-label (over 40 weeks)): 7.5%

— patent publication US20230255953A1, “USE OF ROLUPERIDONE IN PREVENTING RELAPSE IN SCHIZOPHRENIA PATIENTS” (Minerva Neurosciences, Inc., priority 2022, published 2023)
